This is an account of results in PubChem BioAssay (NCI).

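In this assay, cells in 96-well plates receive the compound at five concentrations for 48 hours. Endpoints are linearly interpolated between the surrounding concentrations. Abbreviation: GI50, concentration required for 50% inhibition of growth. Definition used: TGI = concentration required for complete inhibition of growth.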

Some test systems named below: OVCAR-3 ovarian; SNB-19 CNS; K-562 leukemia; HCT-116 colon; IGROV1 ovarian; M14 melanoma; NCI-H522 lung; 786-0 renal; HL-60(TB) leukemia; HOP-62 NSCLC.
Experiment in all cases: NCI-60 cell line screen, 48 h

In the case of `CNC(=O)c1cc(-c2ccc(F)cc2)cc(-c2ccc(S(=O)(=O)N3CCCC3)cc2)c1N`, the GI50 in the test on OVCAR-3 ovarian is 18.2 µM; in the test on SNB-19 CNS, over 25 µM; in the test on K-562 leukemia, 20.4 µM; in the test on HCT-116 colon, 11.6 µM; with IGROV1 ovarian, over 25 µM; in the test with M14 melanoma, over 25 µM. Besides, the GI50 is 22.3 µM with NCI-H522 lung, 24.4 µM in the test on 786-0 renal, 7.41 µM in the test with HL-60(TB) leukemia and over 25 µM in the test with HOP-62 NSCLC. Further, the TGI in the test on OVCAR-3 ovarian, with SNB-19 CNS, with K-562 leukemia, in the test with HCT-116 colon, in the test on IGROV1 ovarian and in the test on M14 melanoma was over 25 µM each time. Moreover, the TGI in the test on NCI-H522 lung, with 786-0 renal, in the test on HL-60(TB) leukemia and with HOP-62 NSCLC was over 25 µM each time.
Turning to `Cn1cc(-c2csc(-c3cn(C(=O)OC(C)(C)C)c4ccccc34)n2)c2cccnc21`, the GI50 with OVCAR-3 ovarian is 2.26 µM; with SNB-19 CNS it was 10.4 µM; in the test with K-562 leukemia it was 2.02 µM; in the test on HCT-116 colon it was 4.7 µM; in the test with IGROV1 ovarian it was 6.5 µM; in the test with M14 melanoma, 7.36 µM. Besides, the GI50 with NCI-H522 lung is 3.84 µM; with 786-0 renal, 4.92 µM; with HL-60(TB) leukemia it was 2.61 µM; in the test on HOP-62 NSCLC it was 12.1 µM. In addition, the TGI is 5.61 µM in the test on OVCAR-3 ovarian; 30.1 µM in the test with SNB-19 CNS; over 100 µM in the test on K-562 leukemia; 17.8 µM in the test on HCT-116 colon; 31 µM with IGROV1 ovarian; 22.7 µM in the test on M14 melanoma. Moreover, the TGI with NCI-H522 lung worked out at 25.4 µM; in the test on 786-0 renal it was 16.4 µM; in the test with HL-60(TB) leukemia it was 21.9 µM; in the test on HOP-62 NSCLC it was 30.4 µM.
`C[C@@H]1Cc2c(ccc3[nH]ncc23)[C@@H](c2ccc(NC3CN(CCCF)C3)cn2)N1CC(F)(F)F`: the GI50 in the test with OVCAR-3 ovarian was 20.3 µM; in the test with SNB-19 CNS, 28.3 µM; in the test on K-562 leukemia, 19.4 µM; in the test with HCT-116 colon it was 14.5 µM; with IGROV1 ovarian, 20.2 µM; in the test with M14 melanoma it was 16.5 µM. The GI50 in the test with NCI-H522 lung is 20.2 µM; with 786-0 renal, 14.4 µM; in the test on HL-60(TB) leukemia, 15.7 µM; in the test with HOP-62 NSCLC it was 15.3 µM. Besides, the TGI in the test on OVCAR-3 ovarian was 57.8 µM; in the test on SNB-19 CNS it was over 100 µM; in the test with K-562 leukemia, 54.9 µM; in the test with HCT-116 colon, 28.2 µM; in the test with IGROV1 ovarian it was 62.4 µM; with M14 melanoma, 32.2 µM. The TGI came to 45.7 µM in the test with NCI-H522 lung, 28.4 µM in the test on 786-0 renal, 43.4 µM in the test with HL-60(TB) leukemia and 34.8 µM in the test with HOP-62 NSCLC.
In the case of `COc1cc([C@@H]2c3cc4c(cc3[C@@H](NCc3cccc(F)c3)C3COC(=O)[C@@H]32)OCO4)cc(OC)c1O` (stereo not given in full), the TGI was 30.5 µM in the test on OVCAR-3 ovarian; over 65 µM in the test with SNB-19 CNS; 28.9 µM with K-562 leukemia; 20.1 µM with HCT-116 colon; 17.5 µM with IGROV1 ovarian; 40.3 µM with M14 melanoma. Besides, the TGI in the test with NCI-H522 lung is 19.4 µM; in the test with 786-0 renal it was 10.2 µM; with HL-60(TB) leukemia, 3.93 µM; in the test on HOP-62 NSCLC it was 4.76 µM.
For the compound `NC(=O)c1nc(-c2ccc(Cl)c(Cl)c2)nc2ccccc12`, the TGI in the test with OVCAR-3 ovarian is over 29.4 µM; in the test with SNB-19 CNS, over 100 µM; in the test on K-562 leukemia it was over 31.6 µM; with HCT-116 colon, over 100 µM; in the test on IGROV1 ovarian, over 100 µM; in the test with M14 melanoma, over 100 µM. Moreover, the TGI with NCI-H522 lung, with 786-0 renal, with HL-60(TB) leukemia and in the test with HOP-62 NSCLC was over 100 µM in each case.
In the case of `CCCCCC/C(CC(=O)CCC(=O)NCCc1ccccc1)=N\Nc1ccc([N+](=O)[O-])cc1[N+](=O)[O-]`, the TGI in the test on OVCAR-3 ovarian, with SNB-19 CNS, with K-562 leukemia, in the test with HCT-116 colon, with IGROV1 ovarian and with M14 melanoma was over 100 µM each time. Also, the TGI was over 100 µM in the test with NCI-H522 lung, over 100 µM in the test on 786-0 renal, 70.5 µM in the test with HL-60(TB) leukemia and over 100 µM with HOP-62 NSCLC.
Regarding `COC(=O)C(/C(=N\O)C(=O)Nc1ccc(Br)cc1)c1nc2ccccc2[nH]c1=O` (stereo not given), the TGI in the test with OVCAR-3 ovarian is 50 µM; in the test on SNB-19 CNS, over 100 µM; with K-562 leukemia it was 67 µM; in the test with HCT-116 colon, over 100 µM; in the test with IGROV1 ovarian, 71.4 µM; with M14 melanoma it was over 100 µM. Moreover, the TGI with NCI-H522 lung turned out to be 32.5 µM; in the test on 786-0 renal, 90.8 µM; with HL-60(TB) leukemia, 55.3 µM; in the test with HOP-62 NSCLC, 92.6 µM.
As for `NC1=C(O)C(=O)C(c2c[nH]c3ccc(OCc4ccccc4)cc23)O1` (stereo not given), the TGI with OVCAR-3 ovarian, in the test on SNB-19 CNS, in the test on K-562 leukemia, with HCT-116 colon, in the test on IGROV1 ovarian and in the test on M14 melanoma was over 100 µM in each case. Moreover, the TGI with NCI-H522 lung, in the test on 786-0 renal, in the test on HL-60(TB) leukemia and in the test with HOP-62 NSCLC was over 100 µM each time.
As to `N=C1C=C(N)C(=O)c2ccccc21`, the GI50 with OVCAR-3 ovarian is 0.139 µM; in the test on SNB-19 CNS it was 0.598 µM; with K-562 leukemia it was 0.231 µM; with HCT-116 colon, 0.183 µM; in the test on IGROV1 ovarian, 0.203 µM; in the test on M14 melanoma, 0.209 µM. The GI50 in the test on NCI-H522 lung was 0.17 µM; with 786-0 renal, 0.202 µM; in the test on HL-60(TB) leukemia it was 0.207 µM; in the test with HOP-62 NSCLC it was 0.204 µM. For the same compound, the TGI in the test with OVCAR-3 ovarian was found to be 0.281 µM; in the test on SNB-19 CNS, 1.97 µM; in the test on K-562 leukemia, 0.556 µM; in the test on HCT-116 colon, 0.451 µM; in the test on IGROV1 ovarian it was 0.42 µM; with M14 melanoma, 0.422 µM. Besides, the TGI is 0.342 µM in the test on NCI-H522 lung, 0.406 µM with 786-0 renal, 0.606 µM with HL-60(TB) leukemia and 0.435 µM in the test with HOP-62 NSCLC.
